Test results from patent publication US9850283B2, “Macrocyclic inhibitors of the PD-1/PD-L1 and CD80(B7-1)/PD-L1 protein/protein interactions” (BRISTOL-MYERS SQUIBB COMPANY, priority 2013, dated 2017).
pIC50: −log10 of the molar value. Like-named read-outs stand apart in the source and are kept apart here. Positions of bridges follow the written chain, without caps; N, C: chain ends. Non-standard residues stand in square brackets, D forms with d. Residues, ends and D or L forms follow the SMILES beside them. ξ: configuration not given here. Phe(2-Cl) = N[C@@H](Cc1ccccc1Cl)C(=O)O; dDopa = N[C@H](Cc1ccc(O)c(O)c1)C(=O)O; Bta = N[C@@H](Cc1csc2ccccc12)C(=O)O; Hyp = O=C(O)[C@@H]1C[C@@H](O)CN1; NMeF = CN[C@@H](Cc1ccccc1)C(=O)O; Ile(3ξ) = CCC(C)[C@H](N)C(=O)O; NMeNle = CCCC[C@H](NC)C(=O)O; NMeS = CN[C@@H](CO)C(=O)O; Pip = O=C(O)[C@@H]1CCCCN1; NMeA = CN[C@@H](C)C(=O)O; Dab = NCC[C@H](N)C(=O)O; ξC = NC(CS)C(=O)O; Sar = CNCC(=O)O

Experiments:
[1] = molecular target: T1, LK35.2-hPD-L1 cells / PE-labeled PD-1-Ig (Homo sapiens, UniProt Q9NZQ7); test: LK35.2-hPD-L1 cell binding high-content screening assay; type: cell-based
T1 construct: expressed in transfected cells; host or cells: LK35.2 mouse B cell line
Procedure, shortened: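 Compound effect on PD-1/PD-L1 binding is measured by imaging cell-associated phycoerythrin signal. Human PD-1-Ig (PE on Ig tag, 1 nM final) is applied with compound to a murine B cell line overexpressing human PD-L1 for 1 h at 37 °C in serum-containing RPMI.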

Human PD-L1/PD-1 = molecular target: T2, Human PD-L1/PD-1 (Homo sapiens, UniProt Q9NZQ7); test: HTRF PD-1-Ig/PD-L1-His binding assay (human PD-L1)
T2 construct: made in house; host or cells: HEK293T
Procedure, shortened: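 The time-resolved fluorescence signal comes from Eu-cryptate anti-Ig (1 nM) and APC anti-His (20 nM) antibodies bound to a PD-1-Ig/PD-L1-His complex. Both partners lack transmembrane regions.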

[2] = cluster symbol, cell line of CBA not given (LK35.2-hPD-L1 or 293T-hPD-L1), read-out: CBA IC50 cluster
[3] = cluster symbol, read-out: HTRF IC50 cluster
[4] = cell binding assay, cell line not given, cluster symbol, read-out: CBA IC50 cluster

T2 sequence (Q9NZQ7 with tags, fused parts or gaps): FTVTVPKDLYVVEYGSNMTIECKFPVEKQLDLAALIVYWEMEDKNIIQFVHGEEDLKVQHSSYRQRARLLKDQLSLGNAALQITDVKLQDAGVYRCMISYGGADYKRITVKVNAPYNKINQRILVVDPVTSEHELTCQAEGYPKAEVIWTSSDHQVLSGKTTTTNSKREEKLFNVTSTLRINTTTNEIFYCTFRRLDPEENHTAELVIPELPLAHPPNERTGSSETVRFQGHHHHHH
T1 sequence (Q9NZQ7 19-290): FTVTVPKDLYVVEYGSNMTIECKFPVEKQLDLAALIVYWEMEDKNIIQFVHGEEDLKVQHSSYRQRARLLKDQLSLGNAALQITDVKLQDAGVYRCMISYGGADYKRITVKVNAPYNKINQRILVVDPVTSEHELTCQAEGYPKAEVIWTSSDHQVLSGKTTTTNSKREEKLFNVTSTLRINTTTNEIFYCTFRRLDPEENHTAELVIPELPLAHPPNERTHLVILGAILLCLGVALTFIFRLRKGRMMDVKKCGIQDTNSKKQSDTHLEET

Row | pIC50 [1, 2] | pIC50 (Human PD-L1/PD-1; [3]) | pIC50 ([1]; cell line of CBA not given (LK35.2-hPD-L1 or 293T-hPD-L1), read-out: CBA IC50 value) | pIC50 (Human PD-L1/PD-1; read-out: HTRF IC50 value) | pIC50 [1, 4] | Compound
1 | 7.14 to 8.32 | < 7.52 | – | – | – | CCCC[C@H]1C(=O)N2CCC[C@@H]2C(=O)N2CCC[C@H]2C(=O)N[C@@H](C(C)C)C(=O)N(C)[C@@H](Cc2ccccc2)C(=O)N[C@@H](Cc2ccc(O)cc2)C(=O)N(C)CC(=O)N[C@@H](Cc2c[nH]c3ccccc23)C(=O)N[C@@H](Cc2ccc(O)cc2)C(=O)N[C@@H](CC(C)C)C(=O)N[C@H](C(=O)NCC(N)=O)CSCC(=O)N[C@@H](Cc2ccccc2)C(=O)N(C)[C@@H](Cc2ccccc2)C(=O)N1C [Example 3173] (HELM PEPTIDE1{[O=C(C[*:3])[*:2]].F.[meF].[CCCC[C@@H](C(=O)[*:2])N(C)[*:1]].[dP].P.V.[meF].Y.[Sar].W.Y.L.C.G.[am]}$PEPTIDE1,PEPTIDE1,1:R3-14:R3$$$V2.0)
2 | < 7.13 | < 7.52 | – | – | – | CCCC[C@H]1C(=O)N2CCC[C@H]2C(=O)N[C@@H](CC(=O)O)C(=O)N[C@@H](C(C)C)C(=O)N(C)[C@@H](Cc2ccccc2)C(=O)N[C@@H](Cc2ccc(O)cc2)C(=O)N(C)CC(=O)N[C@@H](Cc2c[nH]c3ccccc23)C(=O)N[C@@H](Cc2ccc(O)cc2)C(=O)N[C@@H](CC(C)C)C(=O)N[C@H](C(=O)NCC(N)=O)CSCC(=O)N[C@@H](Cc2ccccc2)C(=O)N(C)[C@@H](Cc2ccccc2)C(=O)N1C [Example 3068] (HELM PEPTIDE1{[O=C(C[*:3])[*:2]].F.[meF].[CCCC[C@@H](C(=O)[*:2])N(C)[*:1]].P.D.V.[meF].Y.[Sar].W.Y.L.C.G.[am]}$PEPTIDE1,PEPTIDE1,1:R3-14:R3$$$V2.0)
3 | – | – | 5.42 | 5.65 | – | CCCC[C@H]1C(=O)N(C)CC(=O)N[C@@H](CC(=O)O)C(=O)N[C@@H](C(C)C)C(=O)N[C@@H](Cc2ccccc2Cl)C(=O)N[C@@H](Cc2ccc(O)cc2)C(=O)N(C)CC(=O)N[C@@H](Cc2c[nH]c3ccccc23)C(=O)N[C@@H](Cc2ccc(O)cc2)C(=O)N[C@@H](CC(C)C)C(=O)N[C@H](C(=O)NCC(N)=O)CSCC(=O)N[C@@H](Cc2ccccc2)C(=O)N(C)[C@@H](Cc2ccccc2)C(=O)N1C [Example 3132] ({CH2CO}-F[NMeF][NMeNle][Sar]DV[Phe(2-Cl)]Y[Sar]WYLCG-NH2; thioether N-13)
4 | 8.33 to 9.80 | 7.52 to 8.17 | – | – | – | CCCC[C@H]1C(=O)N(C)[C@@H](CCCC)C(=O)N[C@@H](CCCNC(=N)N)C(=O)N[C@H](C(=O)NCC(N)=O)CSCC(=O)N[C@@H](Cc2ccc(O)cc2)C(=O)N(C)[C@@H](C)C(=O)N[C@@H](CC(N)=O)C(=O)N2CCC[C@H]2C(=O)N[C@@H](Cc2cnc[nH]2)C(=O)N[C@@H](CC(C)C)C(=O)N2CC(F)(F)C[C@H]2C(=O)N[C@@H](Cc2c[nH]c3ccccc23)C(=O)N[C@@H](CO)C(=O)N[C@@H](Cc2c[nH]c3ccccc23)C(=O)N1C [Example 1126]
5 | – | 8.17 to 9.41 | – | – | 8.33 to 9.80 | CCCC[C@H]1C(=O)N(C)[C@@H](CCCC)C(=O)N[C@@H](CCN)C(=O)N[C@H](C(=O)NCC(N)=O)CSCC(=O)N[C@@H](Cc2ccc(O)cc2)C(=O)N(C)[C@@H](C)C(=O)N[C@@H](CC(=O)O)C(=O)N2CCC[C@H]2C(=O)N[C@@H](Cc2cnc[nH]2)C(=O)N[C@@H](CCC(N)=O)C(=O)N2C[C@H](O)C[C@H]2C(=O)N[C@@H](Cc2c[nH]c3ccccc23)C(=O)N[C@@H](CO)C(=O)N[C@@H](Cc2c[nH]c3ccccc23)C(=O)N1C [Example 5045] ({CH2CO}-Y[NMeA]DPHQ[Hyp]WSW[NMeNle][NMeNle][Dab]CG-NH2; thioether N-14)
6 | 7.14 to 8.32 | < 7.52 | – | – | – | CCCC[C@H]1C(=O)N(C)[C@@H](CCCC)C(=O)N[C@@H](CCCNC(=N)N)C(=O)N[C@H](C(=O)NCC(N)=O)CSCC(=O)N[C@@H](Cc2ccccc2)C(=O)N(C)[C@@H](C)C(=O)N[C@@H](CC(N)=O)C(=O)N2CCC[C@H]2C(=O)N[C@@H](Cc2cnc[nH]2)C(=O)N[C@@H](CC(C)C)C(=O)N2CCCC[C@H]2C(=O)N[C@@H](Cc2c[nH]c3ccccc23)C(=O)N[C@@H](CO)C(=O)N[C@@H](Cc2c[nH]c3ccccc23)C(=O)N1C [Example 1196] ({CH2CO}-F[NMeA]NPHL[Pip]WSW[NMeNle][NMeNle]RCG-NH2; thioether N-14)
7 | 7.14 to 8.32 | 7.52 to 8.17 | – | – | – | CCCC[C@H]1C(=O)N(C)CC(=O)N[C@@H](CCN)C(=O)N[C@@H](C(C)C)C(=O)N(C)[C@@H](Cc2ccccc2)C(=O)N[C@@H](Cc2ccc(O)cc2)C(=O)N(C)CC(=O)N[C@@H](Cc2c[nH]c3ccccc23)C(=O)N[C@@H](Cc2ccc(O)cc2)C(=O)N[C@@H](CC(C)C)C(=O)N[C@H](C(=O)NCC(N)=O)CSCC(=O)N[C@@H](Cc2ccccc2)C(=O)N(C)[C@@H](Cc2ccccc2)C(=O)N1C [Example 3153] (HELM PEPTIDE1{[O=C(C[*:3])[*:2]].F.[meF].[CCCC[C@@H](C(=O)[*:2])N(C)[*:1]].[Sar].[Dab].V.[meF].Y.[Sar].W.Y.L.C.G.[am]}$PEPTIDE1,PEPTIDE1,1:R3-14:R3$$$V2.0)
8 | – | 8.17 to 9.41 | – | – | 8.33 to 9.80 | CCCC[C@H]1C(=O)N(C)[C@@H](CCCC)C(=O)N[C@@H](CCCN)C(=O)N[C@H](C(=O)NCC(N)=O)CSCC(=O)N[C@@H](Cc2ccc(O)cc2)C(=O)N(C)[C@@H](C)C(=O)N[C@@H](CC(N)=O)C(=O)N2CCC[C@H]2C(=O)N[C@@H](CN)C(=O)N[C@@H](CC(C)C)C(=O)N2C[C@H](Cc3ccc(F)cc3)C[C@H]2C(=O)N[C@@H](Cc2c[nH]c3ccccc23)C(=O)N[C@@H](CO)C(=O)N[C@@H](Cc2c[nH]c3ccccc23)C(=O)N1C [Example 13013]
9 | – | 7.52 to 8.17 | – | – | 8.33 to 9.80 | CCCC[C@H]1C(=O)N(C)CC(=O)N[C@@H](CC(=O)O)C(=O)N[C@@H](C(C)C)C(=O)N(C)[C@@H](Cc2ccccc2)C(=O)N[C@@H](Cc2ccc(O)cc2)C(=O)N(C)CC(=O)N[C@@H](Cc2c[nH]c3ccccc23)C(=O)N[C@H](Cc2ccc(O)c(O)c2)C(=O)N[C@@H](CC(C)C)C(=O)N[C@H](C(=O)NCC(N)=O)CSCC(=O)N[C@@H](Cc2ccccc2)C(=O)N(C)[C@@H](Cc2ccccc2)C(=O)N1C [Example 3579] ({CH2CO}-F[NMeF][NMeNle][Sar]DV[NMeF]Y[Sar]W[dDopa]LCG-NH2; thioether N-13)
10 | < 7.13 | < 7.52 | – | – | – | CCCC[C@H]1C(=O)N(C)CC(=O)N[C@@H](CC(=O)O)C(=O)N[C@@H](C(C)C)C(=O)N(C)[C@@H](Cc2ccccc2)C(=O)N[C@@H](CCC(=O)O)C(=O)N(C)[C@@H](CCC(=O)O)C(=O)N[C@@H](Cc2c[nH]c3ccccc23)C(=O)N[C@@H](Cc2ccc(O)cc2)C(=O)N[C@@H](CCC(=O)O)C(=O)N[C@H](C(=O)NCC(N)=O)CSCC(=O)N[C@@H](Cc2ccccc2)C(=O)N(C)[C@@H](Cc2ccccc2)C(=O)N1C [Example 3075] (HELM PEPTIDE1{[O=C(C[*:3])[*:2]].F.[meF].[CCCC[C@@H](C(=O)[*:2])N(C)[*:1]].[Sar].D.V.[meF].E.[meE].W.Y.E.C.G.[am]}$PEPTIDE1,PEPTIDE1,1:R3-14:R3$$$V2.0)
11 | – | 7.52 to 8.17 | – | – | 7.14 to 8.32 | CCCC[C@H]1C(=O)N(C)[C@@H](CCCC)C(=O)N[C@@H](CCCNC(=N)N)C(=O)N[C@H](C(=O)NCC(N)=O)CSCC(=O)N[C@@H](Cc2ccccc2)C(=O)N(C)[C@@H](C)C(=O)N[C@@H](CO)C(=O)N2CCC[C@H]2C(=O)N[C@@H](Cc2cnc[nH]2)C(=O)N[C@@H](CC(C)C)C(=O)N(C)CC(=O)N[C@@H](Cc2c[nH]c3ccccc23)C(=O)N[C@@H](CO)C(=O)N[C@@H](Cc2c[nH]c3ccccc23)C(=O)N1C [Example 5019] ({CH2CO}-F[NMeA]SPHL[Sar]WSW[NMeNle][NMeNle]RCG-NH2; thioether N-14)
12 | – | 8.17 to 9.41 | – | – | 8.33 to 9.80 | CCCC[C@H]1C(=O)N[C@@H](CCCNC(=N)N)C(=O)NC(C(=O)NCC(N)=O)CSCC(=O)N[C@@H](Cc2ccc(O)cc2)C(=O)N(C)[C@@H](C)C(=O)N[C@@H](CC(N)=O)C(=O)N2CCC[C@H]2C(=O)N[C@@H](Cc2cnc[nH]2)C(=O)N[C@@H](CC(C)C)C(=O)N2C[C@H](O)C[C@H]2C(=O)N[C@@H](Cc2c[nH]c3ccccc23)C(=O)N[C@@H](CO)C(=O)N[C@@H](Cc2csc3ccccc23)C(=O)N(C)[C@@H](COCC)C(=O)N1C (stereo partly shown) [Example 9045] ({CH2CO}-Y[NMeA]NPHL[Hyp]WS[Bta][NMeS](Et)[NMeNle]R[ξC]G-NH2; thioether N-14)
13 | – | 7.52 to 8.17 | – | – | 7.14 to 8.32 | CCCC[C@H]1C(=O)N(C)[C@@H](CCCC)C(=O)N[C@@H](CCCNC(=N)N)C(=O)N[C@H](C(=O)NCC(N)=O)CSCC(=O)N[C@@H](Cc2ccccc2)C(=O)N(C)[C@@H](C)C(=O)N[C@@H](CC(N)=O)C(=O)N2CCC[C@H]2C(=O)N[C@@H](Cc2cnc[nH]2)C(=O)N[C@@H](C(C)CC)C(=O)N(C)CC(=O)N[C@@H](Cc2c[nH]c3ccccc23)C(=O)N[C@@H](CO)C(=O)N[C@@H](Cc2c[nH]c3ccccc23)C(=O)N1C (stereo partly shown) [Example 6011] ({CH2CO}-F[NMeA]NPH[Ile(3ξ)][Sar]WSW[NMeNle][NMeNle]RCG-NH2; thioether N-14)
14 | – | 8.17 to 9.41 | – | – | 8.33 to 9.80 | CCCC[C@H]1C(=O)N(C)[C@@H](CCCC)C(=O)N[C@@H](CCCNC(=N)N)C(=O)N[C@H](C(=O)NCC(N)=O)CSCC(=O)N[C@@H](Cc2ccc(O)cc2)C(=O)N(C)[C@@H](C)C(=O)N[C@@H](CC(N)=O)C(=O)N2CCC[C@H]2C(=O)N[C@@H](Cc2cnc[nH]2)C(=O)N[C@@H](CC(C)C)C(=O)N2C[C@H](C#N)C[C@H]2C(=O)N[C@@H](Cc2c[nH]c3ccccc23)C(=O)N[C@@H](CO)C(=O)N[C@@H](Cc2c[nH]c3ccccc23)C(=O)N1C [Example 6022]
